Experimental data: US9232796B2, “Herbicidal compositions comprising 4-amino-3-chloro-5-fluoro-6-(4-chloro-2-fluoro-3-methoxyphenyl) pyridine-2-carboxylic acid or a derivative thereof and acetyl-CoA carboxylase (ACCase) inhibitors” (DOW AGROSCIENCES LLC, priority 2012, dated 2016)

Legend:
LEFCH = assay: Example V (second) postemergence foliar-applied ternary mixtures, greenhouse, direct seeded rice weeds; assay type: in vivo, Leptochloa chinensis (L.) Nees
Description: (§1) The treated plants and control plants were placed in a greenhouse as described above and watered by sub-irrigation to prevent wash-off of the test compounds. After approximately 3 weeks, the condition of the test plants as compared with that of the untreated plants was determined visually and scored on a scale of 0 to 100 percent where 0 corresponds to no injury or growth inhibition and 100 corresponds to complete kill.
(§2) Colby's equation was used to determine the herbicidal effects expected from the mixtures (Colby, S. R. 1967. Calculation of the synergistic and antagonistic response of herbicide combinations. Weeds 15:20-22.).
(§3) The following equation was used to calculate the expected activity of mixtures containing three active ingredients, A, B, and C: Expected=A+B+C−((A×B+A×C+B×C)/100)+(A×B×C/10000)

CYPES = assay: as above; assay type: in vivo, Cyperus esculentus L.; details: 12 gae/ha
Description: as §1, §2, §3

IPOHE [1] = assay: as above; assay type: in vivo, Ipomoea hederacea Jacq.; details: 6 gae/ha
Description: as §1, §2, §3

ECHCG = assay: as above; assay type: in vivo, Echinochloa crus-galli (L.) Beauv.; details: 105 gae/ha
Source text: Seeds or nutlets of the desired test plant species were planted in a soil matrix prepared by mixing a sandy loam or loam soil (e.g., 32 percent silt, 23 percent clay, and 45 percent sand, with a pH of about 6.5 and an organic matter content of about 1.9 percent) and calcareous grit in an 80 to 20 ratio. The soil matrix was contained in plastic pots with a volume of 1 quart and a surface area of 83.6 square centimeters (cm^2). When required to ensure good germination and healthy plants, a fungicide treatment and/or other chemical or physical treatment was applied. The plants were grown for 8-22 days in a greenhouse with an approximate 14 hr. photoperiod which was maintained at about 29° C. during the day and 26° C. during the night. Nutrients (Peters Excel® 15-5-15 5-Ca 2-Mg and iron chelate) were applied in the irrigation solution as needed and water was added on a regular basis. Supplemental lighting was provided with overhead metal halide 1000-Watt lamps as necessary. The plants were employed for testing when they reached the first through fourth true leaf stage.
Treatments consisted of the benzyl ester of 4-amino-3-chloro-5-fluoro-6-(4-chloro-2-fluoro-3-methoxy-phenyl)pyridine-2-carboxylic acid (Compound A), formulated as an SC (suspension concentrate), an ACCase inhibitor, and a third herbicidal component, each applied alone and in ternary combination. Forms of compound A were applied on an acid equivalent basis.
The ACCase inhibitor component was applied on an active ingredient basis and included cyhalofop-R-butyl formulated as Clincher® SF, fenoxaprop-p-ethyl formulated as RiceStar® HT, and profoxydim formulated as Aura® 20EC. Other herbicidal components were applied on an active ingredient or acid equivalent basis depending on the compound and included penoxsulam formulated as Grasp® SC, bentazon sodium formulated as Basagran®, triclopyr […] (TEA) salt formulated as Grandstand® R, bispyribac sodium formulated as Regiment® 80WP, imazamox ammonium formulated as Beyond®, benzobicyclon, quinclorac formulated as Facet® 75DF, glyphosate dimethylammonium (DMA) salt formulated as Durango® DMA, glufosinate ammonium formulated as Ignite® 280, fentrazamide formulated as an emulsifiable concentrate (EC), propyrisulfuron formulated as Zeta One®, and indanofan (technical grade material).
(§4) Treatment requirements were calculated based upon the rates being tested, the concentration of active ingredient or acid equivalent in the formulation, and a 12 mL application volume at a rate of 187 L/ha.
(§5) For treatments comprised of formulated compounds, measured amounts of compounds were placed individually in 25 mL glass vials and diluted in a volume of 1.25% (v/v) Agri-Dex® crop oil concentrate to obtain 12× stock solutions. […] Application solutions were prepared by adding an appropriate amount of each stock solution (e.g., 1 mL) and diluted to the appropriate final concentrations with the addition of 9 mL of an aqueous mixture of 1.25% (v/v) crop oil concentrate so that the final spray solutions contained 1.25% (v/v) crop oil concentrate.
As required, additional water and/or 97:3 v/v acetone/DMSO was added to individual application solutions so that the final acetone and DMSO concentrations of the application solutions being compared were 8.1% and 0.25%, respectively.
All stock solutions and applications solutions were visually inspected for compound compatibility prior to application. Spray solutions were applied to the plant material with an overhead Mandel track sprayer equipped with a 8002E nozzles calibrated to deliver 187 L/ha over an application area of 0.503 m^2 at a spray height of 18 inches (46 cm) above average plant canopy height. Control plants were sprayed in the same manner with the solvent blank.
The treated plants and control plants were placed in a greenhouse as described above and watered by sub-irrigation to prevent wash-off of the test compounds. […]

PHAMI = assay: Example IV postemergence foliar-applied, greenhouse, cereal crops weeds; assay type: in vivo, Phalaris minor Retz.
Description: (§6) Seeds of the desired test plant species were planted in Sun Gro MetroMix® 306 planting mixture, which typically has a pH of 6.0 to 6.8 and an organic matter content of about 30 percent, in plastic pots with a surface area of 103.2 square centimeters (cm^2). […] The plants were grown for 7-36 days in a greenhouse with an approximate 14 hour photoperiod which was maintained at about 18° C. during the day and about 17° C. during the night. Nutrients and water were added on a regular basis and supplemental lighting was provided with overhead metal halide 1000-Watt lamps as necessary. The plants were employed for testing when they reached the second or third true leaf stage.
(§7) Treatments consisted of the benzyl ester of 4-amino-3-chloro-5-fluoro-6-(4-chloro-2-fluoro-3-methoxy-phenyl)pyridine-2-carboxylic acid (Compound A), formulated as an SC, a second cereal herbicide alone and then both in combination.
(§8) Other herbicidal components were applied on an active ingredient basis and included acetyl-CoA carboxylase (ACCase)-inhibiting herbicides clodinafop-propargyl, fenoxaprop-P-ethyl, pinoxaden and tralkoxydim.
(§9) Measured aliquots of benzyl ester of 4-amino-3-chloro-5-fluoro-6-(4-chloro-2-fluoro-3-methoxy-phenyl)pyridine-2-carboxylic acid (Compound A) were placed in 25 milliliter (mL) glass vials and diluted in a volume of 1.25% (v/v) Agri-Dex® crop oil concentrate to obtain stock solutions. Compound requirements are based upon a 12 mL application volume at a rate of 187 liters per hectare (L/ha). […] Formulated compounds were applied to the plant material with an overhead Mandel track sprayer equipped with an 8002E nozzle calibrated to deliver 187 L/ha over an application area of 0.503 square meters (m^2) at a spray height of 18 inches (46 cm) above average plant canopy. Control plants were sprayed in the same manner with the solvent blank.
as §1, with “20-22 days,” for “approximately 3 weeks,”, “control” for “untreated”, “injury” for “injury or growth inhibition”
as §2
(§10) The following equation was used to calculate the expected activity of mixtures containing two active ingredients, A and B: Expected=A+B−(A×B/100)

SCPJU = assay: Example I postemergence foliar-applied, greenhouse, direct seeded rice weeds; assay type: in vivo, Schoenoplectus juncoides (Roxb.) Palla
Source text: (§11) Seeds or nutlets of the desired test plant species were planted in a soil matrix prepared by mixing a loam or sandy loam soil (e.g., 28.6 percent silt, 18.8 percent clay, and 52.6 percent sand, with a pH of about 5.8 and an organic matter content of about 1.8 percent) and calcareous grit in an 80 to 20 ratio. The soil matrix was contained in plastic pots with a volume of 1 quart and a surface area of 83.6 square centimeters (cm^2). When required to ensure good germination and healthy plants, a fungicide treatment and/or other chemical or physical treatment was applied. The plants were grown for 8-22 days in a greenhouse with an approximate 14 hr. photoperiod which was maintained at about 29° C. during the day and 26° C. during the night. Nutrients (Peters Excel® 15-5-15 5-Ca 2-Mg and iron chelate) were applied in the irrigation solution as needed and water was added on a regular basis. Supplemental lighting was provided with overhead metal halide 1000-Watt lamps as necessary. The plants were employed for testing when they reached the first through fourth true leaf stage.
(§12) Treatments consisted of the acid or esters of 4-amino-3-chloro-5-fluoro-6-(4-chloro-2-fluoro-3-methoxy-phenyl)pyridine-2-carboxylic acid (Compound A), each formulated as an SC (suspension concentrate), and various herbicidal components alone and in combination.
(§13) Other herbicidal components were applied on an acid equivalent (ae) or active ingredient (ai) basis and included acetyl coA carboxylase (ACCase)-inhibiting herbicides (cyclohexanedione and aryloxyphenoxypropionate chemical classes) cyhalofop-butyl formulated as Clincher® SF (285 gr ai/L EC), diclofop-methyl formulated as Hoelon® 3EC, fenoxaprop-p-ethyl+isoxadifen-ethyl formulated as RiceStar® HT (0.58 lb./gal EC), fenoxaprop-p-ethyl+mefenpyr diethyl formulated as Puma® IEC, metamifop formulated as Metamifop EC, haloxyfop-methyl formulated as Gallant Super®, fluazifop-p-butyl formulated as Fusilade® DX, quizalofop-p-ethyl formulated as Assure® II, profoxydim formulated as Aura® 20EC, clethodim applied as Intensity®, sethoxydim formulated as Poast®, and tralkoxydim formulated as Achieve®.
as §4
as §5, with “crop oil concentrated to obtain” for “crop oil concentrate to obtain”, “addition of 10 mL of” for “addition of 9 mL of”, “solutions contained 1.25+/−0.05% (v/v) crop” for “solutions contained 1.25% (v/v) crop”
(§14) All stock solutions and applications solutions were visually inspected for compound compatibility prior to application. Spray solutions were applied to the plant material with an overhead Mandel track sprayer equipped with a 8002E nozzles calibrated to deliver 187 L/ha over an application area of 0.503 m^2 at a spray height of 18 to 20 inches (46 to 50 cm) above average plant canopy height. Control plants were sprayed in the same manner with the solvent blank.
as §1, with “kill. […]” for “kill.”

IPOHE [2] = assay: as above; assay type: in vivo, Ipomoea hederacea Jacq.
Source text: as §11, §12, §13, §4
as §5, with “crop oil concentrated to obtain” for “crop oil concentrate to obtain”, “addition of 10 mL of” for “addition of 9 mL of”, “solutions contained 1.25+/−0.05% (v/v) crop” for “solutions contained 1.25% (v/v) crop”
as §14
as §1, with “kill. […]” for “kill.”

ECHCO = assay: as above; assay type: in vivo, Echinochloa colona (L.) Link
Source text: as §11, §12, §13, §4
as §5, with “crop oil concentrated to obtain” for “crop oil concentrate to obtain”, “addition of 10 mL of” for “addition of 9 mL of”, “solutions contained 1.25+/−0.05% (v/v) crop” for “solutions contained 1.25% (v/v) crop”
as §14
as §1, with “kill. […]” for “kill.”

KCHSC = assay: Example IV postemergence foliar-applied, greenhouse, cereal crops weeds; assay type: in vivo, Kochia scoparia (L.) Schrad.
Description: as §6, §7, §8, §9
as §1, with “20-22 days,” for “approximately 3 weeks,”, “control” for “untreated”, “injury” for “injury or growth inhibition”
as §2, §10

Structure (SMILES): CCC1(CC2(c3cccc(Cl)c3)CO2)C(=O)c2ccccc2C1=O (stereo not shown) [Indanofan]
- Visual Weed Control (%) - 22 DAA LEFCH Obs (LEFCH; 72.5 gai/ha): 30%
- Visual Weed Control (%) - 22 DAA LEFCH Obs (LEFCH; 145 gai/ha): 38%

Structure (SMILES): COCc1cnc(C2=NC(C)(C(C)C)C(=O)N2)c(C(=O)O)c1 (stereo not shown) [Imazamox ammonium]
- Visual Weed Control (%) - 21 DAA CYPES Obs (CYPES): 60%
- Visual Weed Control (%) - 21 DAA IPOHE Obs (IPOHE [1]): 65%

Structure (SMILES): CNC.O=C(O)CNCP(=O)(O)O [Glyphosate DMA]
- Visual Weed Control (%) - 21 DAA LEFCH Obs (LEFCH; 420 gai/ha): 45%
- Visual Weed Control (%) - 21 DAA ECHCG Obs (ECHCG): 23%

Structure (SMILES): CCc1cc(C)cc(CC)c1-c1c(OC(=O)C(C)(C)C)n2n(c1=O)CCOCC2 [Pinoxaden, 8-(2,6-diethyl-4-methylphenyl)-1,2,4,5-tetrahydro-7-oxo-7H-pyrazolo[1,2-d][1,4,5]oxadiazepin-9-yl 2,2-dimethylpropanoate]
- Visual Weed Control (%) - 21 DAA PHAMI Obs (PHAMI; Pinoxaden 15 gai/ha): 78%
- Visual Weed Control (%) - 21 DAA PHAMI Obs (PHAMI; Pinoxaden 30 gai/ha): 94%
- Visual Weed Control (%) - 21 DAA SCPJU Obs (SCPJU; 15 gai/ha): 0%
- Visual Weed Control (%) - 21 DAA SCPJU Obs (SCPJU; 30 gai/ha): 0%
- Visual Weed Control (%) - 21 DAA SCPJU Obs (SCPJU; 60 gai/ha): 0%
- Visual Weed Control (%) - 21 DAA IPOHE Obs (IPOHE [2]; 15 gai/ha): 10%
- Visual Weed Control (%) - 21 DAA IPOHE Obs (IPOHE [2]; 30 gai/ha): 10%
- Visual Weed Control (%) - 21 DAA IPOHE Obs (IPOHE [2]; 60 gai/ha): 0%
- Visual Weed Control (%) - 21 DAA ECHCO Obs (ECHCO; 15 gai/ha): 15%
- Visual Weed Control (%) - 21 DAA ECHCO Obs (ECHCO; 30 gai/ha): 85%
- Visual Weed Control (%) - 21 DAA ECHCO Obs (ECHCO; 60 gai/ha): 95%
- Visual Weed Control (%) - 21 DAA KCHSC Obs (KCHSC; Pinoxaden 15 gai/ha): 0%
- Visual Weed Control (%) - 21 DAA KCHSC Obs (KCHSC; Pinoxaden 30 gai/ha): 15%
